According to US8481544B2, “Antibacterial compositions” (Biota Europe Limited, priority 2006, dated 2013):
≈ marks a conversion by molar mass, not a printed value.

tested on: Enterococcus faecalis ATCC 29212; test: MIC against Enterococcus faecalis ATCC 29212; type: cell-based; settings: ATCC29212; Enterococcus faecalis ATCC 29212; read-out: MICs against Enterococcus faecalis, Activity
Protocol: Institute. Methods for Dilution Antimicrobial Susceptibility Tests for Bacteria That Grow Aerobically; Approved Standard—Seventh Edition. Document M7-A7. CLSI, Wayne, Pa., 2006; Clinical Laboratories and Standards Institute. Methods for Antimicrobial Susceptibility Testing of Anaerobic Bacteria; Approved Standard—Sixth Edition. Document M11-A6. CLSI, Wayne, Pa., 2004).
Compounds of this invention were tested for antimicrobial activity by susceptibility testing in liquid or on solid media. MICs for compounds against each strain were determined by the broth microdilution or agar dilution method according to the guidelines of the Clinical Laboratories and Standards Institute, formerly the National Committee for Clinical Laboratory Standards (Clinical Laboratories and Standards Institute. Methods for Dilution Antimicrobial Susceptibility Tests for Bacteria That Grow Aerobically; Approved Standard—Seventh Edition. Document M7-A7. CLSI, Wayne, Pa., 2006; Clinical Laboratories and Standards Institute. Methods for Antimicrobial Susceptibility Testing of Anaerobic Bacteria; Approved Standard—Sixth Edition. Document M11-A6. CLSI, Wayne, Pa., 2004).

| SMILES | MIC [µg/mL] |
| --- | --- |
| CCNC(=O)Nc1nc2cc(-c3ccc(N)nc3)cc(-c3ccccn3)c2s1 [Example 138, 1-[5-(6-Amino-pyridin-3-yl)-7-pyridin-2-yl-benzothiazol-2-yl]-3-ethyl-urea] | < 0.25 |
| CCNC(=O)Nc1nc2cc(-c3ccc(NC(C)=O)nc3)cc(-c3ccc(NC(C)=O)nc3)c2s1 [Example 148, N-{5-[7-(6-Acetylamino-pyridin-3-yl)-2-(3-ethyl-ureido)-benzothiazol-5-yl]-pyridin-2-yl}-acetamide] | 0.25 to 1 (≈ 0.511 to 2.04 µM) |
| CCNC(=O)Nc1nc2cc(-c3ccc(NC(C)=O)nc3)cc(-c3nccc4cc[nH]c34)c2s1 [Example 137, N-{5-[2-(3-Ethyl-ureido)-7-(1H-pyrrolo[2,3-c]pyridin-7-yl)-benzothiazol-5-yl]-pyridin-2-yl}-acetamide] | 0.25 to 1 (≈ 0.53 to 2.12 µM) |
| CCNC(=O)Nc1nc2cc(-c3ccc(C(=O)OC)nc3)cc(-c3cccnc3)c2s1 [Example 26, 5-[2-(3-Ethyl-ureido)-7-pyridin-3-yl-benzothiazol-5-yl]-pyridine-2-carboxylic acid methyl ester] | 0.25 to 1 (≈ 0.577 to 2.31 µM) |
| CCNC(=O)Nc1nc2cc(-c3cnc(N)nc3)cc(-c3cccnc3)c2s1 [Example 14, 1-[5-(2-Amino-pyrimidin-5-yl)-7-pyridin-3-yl-benzothiazol-2-yl]-3-ethyl-urea] | 0.25 to 1 (≈ 0.639 to 2.55 µM) |
| CCNC(=O)Nc1nc2cc(-c3ccc(CN4CCOCC4)nc3)cc(-c3ccccn3)c2s1 [Example 59, 1-Ethyl-3-[5-(6-morpholin-4-ylmethyl-pyridin-3-yl)-7-pyridin-2-yl-benzothiazol-2-yl]-urea] | < 0.25 |
| CCNC(=O)Nc1nc2cc(-c3cccnc3)cc(-c3ccc(CN4CCOCC4)cn3)c2s1 [Example 120, 1-Ethyl-3-[7-(5-morpholin-4-ylmethyl-pyridin-2-yl)-5-pyridin-3-yl-benzothiazol-2-yl]-urea] | 0.25 to 1 (≈ 0.527 to 2.11 µM) |
| CCNC(=O)Nc1nc2cc(-c3cncnc3)cc(-c3cccnc3)c2s1 [Example 13, 1-Ethyl-3-(7-pyridin-3-yl-5-pyrimidin-5-yl-benzothiazol-2-yl)-urea] | 0.25 to 1 (≈ 0.664 to 2.66 µM) |
| CCNC(=O)Nc1nc2cc(-c3cccnc3)cc(-c3csc(OC)n3)c2s1 [Example 157, 1-Ethyl-3-[7-(2-methoxy-thiazol-4-yl)-5-pyridin-3-yl-benzothiazol-2-yl]-urea] | 0.25 to 1 (≈ 0.608 to 2.43 µM) |
| CCNC(=O)Nc1nc2cc(-c3ccc(CO)cc3)cc(-c3ccc(CO)cc3)c2s1 [Example 144, 1-[5,7-Bis-(4-hydroxymethyl-phenyl)-benzothiazol-2-yl]-3-ethyl-urea] | 0.25 to 1 (≈ 0.577 to 2.31 µM) |
| CCNC(=O)Nc1nc2cc(-c3cccnc3)cc(-c3csc(O)n3)c2s1 [Example 172, 1-Ethyl-3-[7-(2-hydroxy-thiazol-4-yl)-5-pyridin-3-yl-benzothiazol-2-yl]-urea] | 2 to 16 (≈ 5.03 to 40.3 µM) |
| CCNC(=O)Nc1nc2cc(-c3cncc(N)n3)cc(-c3cccnc3)c2s1 [Example 45, 1-[5-(6-Amino-pyrazin-2-yl)-7-pyridin-3-yl-benzothiazol-2-yl]-3-ethyl-urea] | 0.25 to 1 (≈ 0.639 to 2.55 µM) |
| CCNC(=O)Nc1nc2cc(-c3ccc(O)nc3)cc(-c3cccnc3)c2s1 [Example 16, 1-Ethyl-3-[5-(6-hydroxy-pyridin-3-yl)-7-pyridin-3-yl-benzothiazol-2-yl]-urea] | 2 to 16 (≈ 5.11 to 40.9 µM) |
| CCNC(=O)Nc1nc2cc(-c3ccc(NC(C)=O)nc3)cc(-c3cccnc3)c2s1 [Example 20, N-{5-[2-(3-Ethyl-ureido)-7-pyridin-3-yl-benzothiazol-5-yl]-pyridin-2-yl}-acetamide] | 0.25 to 1 (≈ 0.578 to 2.31 µM) |
| CCNC(=O)Nc1nc2cc(-c3cccnc3)cc(-c3cscn3)c2s1 [Example 158, 1-Ethyl-3-(5-pyridin-3-yl-7-thiazol-4-yl-benzothiazol-2-yl)-urea] | 0.25 to 1 (≈ 0.655 to 2.62 µM) |
| CCNC(=O)Nc1nc2cc(-c3cccnc3)cc(-c3cnc(N)nc3)c2s1 [Example 42, 1-[7-(2-Amino-pyrimidin-5-yl)-5-pyridin-3-yl-benzothiazol-2-yl]-3-ethyl-urea] | 0.25 to 1 (≈ 0.639 to 2.55 µM) |
| CCNC(=O)Nc1nc2cc(-c3ccoc3)cc(-c3ccccn3)c2s1 [Example 37, 1-Ethyl-3-(5-furan-3-yl-7-pyridin-2-yl-benzothiazol-2-yl)-urea] | 0.25 to 1 (≈ 0.686 to 2.74 µM) |
